Reference: PubChem BioAssay (NCI)
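These data come from cells grown in 96-well plates and exposed to compound for 48 hours at five concentrations. The concentration for full growth arrest is given as TGI.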

Assays:
Experiment in all cases: inhibition of tumour cell growth, NCI panel, 48 h
[1] = test system: MDA-MB-435
[2] = test system: RPMI-8226 leukemia
[3] = test system: UACC-257 melanoma
[4] = test system: T-47D breast
[5] = test system: OVCAR-3 ovarian
[6] = test system: K-562 leukemia
[7] = test system: SNB-19 CNS
[8] = test system: SR leukemia
[9] = test system: SK-MEL-5 melanoma
[10] = test system: UACC-62 melanoma
[11] = test system: LOX IMVI melanoma
[12] = test system: SF-539 CNS
[13] = test system: SF-268 CNS
[14] = test system: RXF 393 renal
[15] = test system: DU-145 prostate
[16] = test system: HL-60(TB) leukemia
[17] = test system: SK-OV-3 ovarian
[18] = test system: MCF7 breast
[19] = test system: HCT-15 colon
[20] = test system: IGROV1 ovarian
[21] = test system: SK-MEL-2 melanoma
[22] = test system: UO-31 renal
[23] = test system: A549 NSCLC
[24] = test system: MALME-3M melanoma
[25] = test system: OVCAR-5 ovarian
[26] = test system: HOP-92 NSCLC
[27] = test system: PC-3 prostate
[28] = test system: NCI-H23 lung
[29] = test system: TK-10 renal
[30] = test system: SF-295 CNS
[31] = test system: MDA-N
[32] = test system: ACHN renal
[33] = test system: EKVX NSCLC
[34] = test system: CCRF-CEM leukemia
[35] = test system: KM12 colon
[36] = test system: HCT-116 colon
[37] = test system: U251 CNS
[38] = test system: HS 578T breast
[39] = test system: NCI-H460 lung
[40] = test system: MOLT-4 leukemia
[41] = test system: HOP-62 NSCLC
[42] = test system: 786-0 renal
[43] = test system: SN12C renal
[44] = test system: CAKI-1 renal
[45] = test system: NCI-H522 lung
[46] = test system: M14 melanoma
[47] = test system: A498 renal
[48] = test system: HCC-2998 colon
[49] = test system: SK-MEL-28 melanoma
[50] = test system: SNB-75 CNS
[51] = test system: MDA-MB-231 breast
[52] = test system: COLO 205 colon
[53] = test system: SW-620 colon
[54] = test system: HT29 colon
[55] = test system: BT-549 breast
[56] = test system: NCI-H226 lung

Question: `O=C1c2ccccc2C(=O)c2sc(Nc3ccccc3C(F)(F)F)nc21` was tested. Which TGI [1] did it give?
Answer: Its TGI is 16 µM.

Question: What about the TGI [2] of the same compound?
Answer: The TGI was 74.4 µM.

Question: And the TGI [3]?
Answer: Its TGI is 32.4 µM.

Question: And the TGI [4]?
Answer: Its TGI is 44.5 µM.

Question: What about the TGI [5] of the same compound?
Answer: The TGI was 27.5 µM.

Question: What about the TGI [6] of the same compound?
Answer: Its TGI is 14.8 µM.

Question: What about the TGI [7] of the same compound?
Answer: Its TGI is 55.2 µM.

Question: What about the TGI [8] of the same compound?
Answer: The TGI was greater than 100 µM.

Question: What about the TGI [9] of the same compound?
Answer: Its TGI is 22.7 µM.

Question: What about the TGI [10] of the same compound?
Answer: The TGI was 29.7 µM.

Question: And the TGI [11]?
Answer: The TGI was greater than 100 µM.

Question: And the TGI [12]?
Answer: The TGI was 45.8 µM.

Question: And the TGI [13]?
Answer: Its TGI is 30.1 µM.

Question: And the TGI [14]?
Answer: The TGI was 39 µM.

Question: What about the TGI [15] of the same compound?
Answer: Its TGI is 31.7 µM.

Question: What about the TGI [16] of the same compound?
Answer: The TGI was 17.7 µM.

Question: And the TGI [17]?
Answer: Its TGI is 30.8 µM.

Question: And the TGI [18]?
Answer: The TGI was 45.9 µM.

Question: And the TGI [19]?
Answer: The TGI was greater than 100 µM.

Question: And the TGI [20]?
Answer: The TGI was 34.5 µM.

Question: And the TGI [21]?
Answer: Its TGI is 25.2 µM.

Question: And the TGI [22]?
Answer: The TGI was 25.2 µM.

Question: And the TGI [23]?
Answer: The TGI was 57.2 µM.

Question: And the TGI [24]?
Answer: The TGI was 29.9 µM.

Question: What about the TGI [25] of the same compound?
Answer: The TGI was 44.6 µM.

Question: And the TGI [26]?
Answer: Its TGI is 23.7 µM.

Question: What about the TGI [27] of the same compound?
Answer: The TGI was 26.1 µM.

Question: And the TGI [28]?
Answer: The TGI was 42.8 µM.

Question: And the TGI [29]?
Answer: Its TGI is 35.7 µM.

Question: And the TGI [30]?
Answer: The TGI was 32.2 µM.

Question: And the TGI [31]?
Answer: Its TGI is 30.8 µM.

Question: And the TGI [32]?
Answer: Its TGI is 33 µM.

Question: What about the TGI [33] of the same compound?
Answer: The TGI was 55.1 µM.

Question: What about the TGI [34] of the same compound?
Answer: The TGI was greater than 100 µM.

Question: And the TGI [35]?
Answer: The TGI was 27.4 µM.

Question: What about the TGI [36] of the same compound?
Answer: The TGI was greater than 100 µM.

Question: What about the TGI [37] of the same compound?
Answer: The TGI was 22.4 µM.

Question: And the TGI [38]?
Answer: Its TGI is 48.2 µM.

Question: And the TGI [39]?
Answer: The TGI was 58.1 µM.

Question: What about the TGI [40] of the same compound?
Answer: The TGI was 85.1 µM.

Question: And the TGI [41]?
Answer: Its TGI is 28.2 µM.

Question: And the TGI [42]?
Answer: Its TGI is 41 µM.

Question: And the TGI [43]?
Answer: The TGI was greater than 100 µM.

Question: What about the TGI [44] of the same compound?
Answer: Its TGI is 21.1 µM.

Question: And the TGI [45]?
Answer: The TGI was greater than 100 µM.

Question: What about the TGI [46] of the same compound?
Answer: Its TGI is 50.7 µM.

Question: What about the TGI [47] of the same compound?
Answer: Its TGI is 28.9 µM.

Question: And the TGI [48]?
Answer: The TGI was 35.2 µM.

Question: What about the TGI [49] of the same compound?
Answer: Its TGI is 30.3 µM.

Question: What about the TGI [50] of the same compound?
Answer: The TGI was 35.8 µM.

Question: And the TGI [51]?
Answer: The TGI was 16.1 µM.

Question: And the TGI [52]?
Answer: Its TGI is 27.8 µM.

Question: And the TGI [53]?
Answer: Its TGI is 24.4 µM.

Question: What does the source list for `CC(=O)OC1C(C)OC(OC(=O)C2CCC3C(C2)OC2(CC(OC(=O)/C=C/c4ccccc4)C(C)CO2)C32CO2)C(OC2OC(C)C(O)C(OC(C)=O)C2O)C1O` (stereo not drawn)?
Answer: TGI [54]: < 0.01 µM; TGI [1]: < 0.01 µM; TGI [55]: < 0.0335 µM; TGI [2]: < 0.01 µM; TGI [3]: < 0.0137 µM; TGI [6]: > 100 µM; TGI [9]: 0.165 µM; TGI [10]: < 0.01 µM; TGI [11]: < 0.01 µM; TGI [13]: < 0.0136 µM; TGI [14]: < 0.0434 µM; TGI [15]: 0.0213 µM; TGI [56]: < 0.01 µM; TGI [17]: > 100 µM; TGI [18]: > 100 µM; TGI [19]: 5.8 µM; TGI [20]: < 0.01 µM; TGI [21]: < 0.01 µM; TGI [22]: 2.96 µM; TGI [24]: < 0.01 µM; TGI [25]: 0.0407 µM; TGI [27]: 0.0402 µM; TGI [28]: < 0.01 µM; TGI [29]: > 100 µM; TGI [30]: < 0.0304 µM; TGI [31]: < 0.01 µM; TGI [32]: 1.19 µM; TGI [33]: 1.27 µM; TGI [35]: < 0.0123 µM; TGI [37]: < 0.01 µM; TGI [38]: < 0.01 µM; TGI [39]: < 0.0125 µM; TGI [40]: < 0.01 µM; TGI [41]: > 100 µM; TGI [43]: < 0.01 µM; TGI [46]: 0.104 µM; TGI [47]: 0.286 µM; TGI [48]: < 0.01 µM; TGI [50]: < 0.01 µM; TGI [52]: > 100 µM
